Results taken from patent publication US7105562B2, “Geometrically restricted 3-cyclopentylidene-1,3-dihydroindol-2-ones as potent protein tyrosine kinase inhibitors” (Sugen, Inc., priority 2003, dated 2006).

Molecular target: FGFR1 (Homo sapiens, UniProt P11362)
Test: FGFR1 Bioassay (in vitro kinase activity, ELISA)
Format: biochemical
Conditions: purified GST-FGFR1, poly(Glu-Tyr) substrate, read-out: FGFR IC50
Experimental: This assay is used to measure the in vitro kinase activity of FGF1-R in an ELISA assay.
1. Costar 96-well ELISA plates (Corning Catalog # 3369).
2. Poly(Glu-Tyr) (Sigma Catalog # P0275).
4. 50 mM Hepes Buffer Solution.
5. Blocking Buffer (5% BSA/PBS).
6. Purified GST-FGFR1 (SUGEN, Inc.)
7. Kinase Dilution Buffer.
Mix 500 μl 1M Hepes (GIBCO), 20 μl 5% BSA/PBS, 10 μl 100 mM sodium orthovanadate and 50 μl 5M NaCl.
9. ATP/MnCl2 phosphorylation mix: mix 20 μL ATP, 400 μL 1 M MnCl2 and 9.56 ml dH2O.
10. NUNC 96-well V bottom polypropylene plates (Applied Scientific Catalog # AS-72092).
Add 500 μL TWEEN to 1 liter TBS.
13. Rabbit polyclonal anti-phosphotyrosine serum (SUGEN, Inc.).
14. Goat anti-rabbit IgG peroxidase conjugate (Biosource, Catalog # ALI0404).
1. Coat Costar 96 well ELISA plates with 1 μg per well Poly(Glu-Tyr) in 100 μl PBS. Store overnight at 4° C.
2. Wash coated plates once with PBS.
3. Add 150 μL of 5% BSA/PBS Blocking Buffer to each well. Incubate, with shaking, for 1 hr at room temperature.
4. Wash plate 2× with PBS, then once with 50 mM Hepes. Pat plates on a paper towel to remove excess liquid and bubbles.
5. Add 25 μL of 0.4 mM test compound in 4% DMSO or 4% DMSO alone (controls) to plate.
6. Dilute purified GST-FGFR1 in Kinase Dilution Buffer (5 ng kinase/50 ul KDB/well).
7. Add 50 μL of diluted kinase to each well.
8. Start kinase reaction by adding 25 μl/well of freshly prepared ATP/Mn++ (0.4 ml 1M MnCl2, 40 μL 10 mM ATP, 9.56 ml dH2O), freshly prepared).
9. Stop reaction with 25 μL of 0.5M EDTA.
10. Wash plate 4× with fresh TBST.
11. Make up Antibody Dilution Buffer: For 50 ml, mix 5 ml of 5% BSA, 250 μl of 5% milk and 50 μl of 100 mM sodium vanadate, bring to final volume with 0.05% TBST.
12. Add 100 μl per well of anti-phosphotyrosine (1:10000 dilution in ADB). Incubate, with shaking for 1 hr. at room temperature.
14. Add 100 μl per well of Biosource Goat anti-rabbit IgG peroxidase conjugate (1:6000 dilution in ADB). Incubate, with shaking for 1 hr. at room temperature.
15. Wash as in step 10 and then with PBS to remove bubbles and excess TWEEN.
16. Add 100 μl of ABTS/H2O2 solution to each well.
17. Incubate, with shaking, for 10 to 20 minutes. Remove any bubbles.
18. Read assay on Dynatech MR7000 ELISA reader: test filter at 410 nM, reference filter at 630 nM.

Chain of FGFR1 (P11362 22-822, species assumed): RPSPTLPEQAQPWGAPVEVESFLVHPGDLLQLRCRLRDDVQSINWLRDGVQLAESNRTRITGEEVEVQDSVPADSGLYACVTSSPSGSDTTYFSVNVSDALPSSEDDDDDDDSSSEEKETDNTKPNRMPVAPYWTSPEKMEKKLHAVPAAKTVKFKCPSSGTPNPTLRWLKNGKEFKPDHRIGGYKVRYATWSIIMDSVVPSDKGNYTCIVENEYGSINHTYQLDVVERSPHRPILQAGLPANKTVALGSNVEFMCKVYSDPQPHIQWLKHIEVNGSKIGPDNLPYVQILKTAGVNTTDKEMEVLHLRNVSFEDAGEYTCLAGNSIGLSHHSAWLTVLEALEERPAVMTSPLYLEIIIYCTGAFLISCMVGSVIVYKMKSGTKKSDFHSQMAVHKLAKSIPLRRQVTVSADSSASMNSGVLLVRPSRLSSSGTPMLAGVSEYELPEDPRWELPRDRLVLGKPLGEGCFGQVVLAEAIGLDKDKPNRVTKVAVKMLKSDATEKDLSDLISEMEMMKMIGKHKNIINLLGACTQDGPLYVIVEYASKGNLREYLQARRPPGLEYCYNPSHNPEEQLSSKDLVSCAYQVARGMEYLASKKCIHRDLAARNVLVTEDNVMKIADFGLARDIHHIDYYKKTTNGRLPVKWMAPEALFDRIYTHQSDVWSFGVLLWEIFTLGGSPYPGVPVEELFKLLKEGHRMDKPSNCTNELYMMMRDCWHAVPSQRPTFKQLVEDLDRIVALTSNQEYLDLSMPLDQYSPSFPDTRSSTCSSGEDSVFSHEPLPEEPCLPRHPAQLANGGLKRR

IC50 [µM] | SMILES
0.02 | CNS(=O)(=O)c1ccc2c(c1)/C(=C1\CCc3c1[nH]c(C)c3C(=O)NCC(O)CNC1CC1)C(=O)N2 (centres unmarked) [Example 11, 2-Methyl-6-[5-methylsulfamoyl-2-oxo-1,2-dihydro-indol-(3Z)-ylidene]-1,4,5,6-tetrahydro-cyclopenta[b]pyrrole-3-carboxylic acid (3-cyclopropylamino-2-hydroxy-propyl)-amide]
0.1 | CCOC(=O)c1c(C)[nH]c2c1CC/C2=C1/C(=O)Nc2ccc(S(N)(=O)=O)cc21 [Example 14, 2-Methyl-6-[2-oxo-5-sulfamoyl-1,2-dihydro-indol-(3Z)-ylidene]-1,4,5,6-tetrahydro-cyclopenta[b]pyrrole-3-carboxylic acid ethyl ester]
0.022 | CNS(=O)(=O)c1ccc2c(c1)/C(=C1\CCc3c1[nH]c(C)c3C(=O)O)C(=O)N2 [Example 5, 2-Methyl-6-[5-methylsulfamoyl-2-oxo-1,2-dihydro-indol-(3Z)-ylidene]-1,4,5,6-tetrahydro-cyclopenta[b]pyrrole-3-carboxylic acid]
0.48 | COc1ccccc1-c1ccc2c(c1)NC(=O)/C2=C1/CCc2c1[nH]c(C)c2C(=O)N1CCC[C@H]1CN1CCCC1 [Example 20]
0.23 | COc1ccc(-c2ccc3c(c2)NC(=O)/C3=C2/CCc3c2[nH]c(C)c3C(=O)N2CCC[C@H]2CN2CCCC2)cc1 [Example 23, 6-(4-Methoxy-phenyl)-3-[2-methyl-3-((S)-2-pyrrolidin-1-ylmethyl-pyrrolidine-1-carbonyl)-4,5-dihydro-1H-cyclopenta[b]pyrrol-(6Z)-ylidene]-1,3-dihydro-indol-2-one]
0.08 | Cc1[nH]c2c(c1C(=O)N1CCC[C@H]1CN1CCCC1)CC/C2=C1/C(=O)Nc2ccc(F)cc21 [Example 18, 5-Fluoro-3-[2-methyl-3-((S)-2-pyrrolidin-1-ylmethyl-pyrrolidine-1-carbonyl)-4,5-dihydro-1H-cyclopenta[b]pyrrol-(6Z)-ylidene]-1,3-dihydro-indol-2-one]
< 0.018 | CNS(=O)(=O)c1ccc2c(c1)/C(=C1\CCc3c1[nH]c(C)c3C(=O)NCC(O)CN1CCCC1)C(=O)N2 (centres unmarked) [Example 10, 2-Methyl-6-[5-methylsulfamoyl-2-oxo-1,2-dihydro-indol-(3Z)-ylidene]-1,4,5,6-tetrahydro-cyclopenta[b]pyrrole-3-carboxylic acid (2-hydroxy-3-pyrrolidin-1-yl-propyl)-amide]
0.04 | CNS(=O)(=O)c1ccc2c(c1)/C(=C1\CC(CC(=O)O)c3cc(OC)ccc31)C(=O)N2 (centres unmarked) [Example 17, {6-Methoxy-3-[5-methylsulfamoyl-2-oxo-1,2-dihydro-indol-(3Z)-ylidene]-indan-1-yl}-acetic acid]
0.015 | CNS(=O)(=O)c1ccc2c(c1)/C(=C1\CCc3c1[nH]c(C)c3S(C)(=O)=O)C(=O)N2 [Example 16, 3-[3-Methanesulfonyl-2-methyl-4,5-dihydro-1H-cyclopenta[b]pyrrol-(6Z)-ylidene]-2-oxo-2,3-dihydro-1H-indole-5-sulfonic acid methylamide]
0.079 | CCOC(=O)c1c(C)[nH]c2c1CC/C2=C1/C(=O)Nc2ccccc21 [Example 1, 2-Methyl-6-[2-oxo-1,2-dihydro-indol-(3Z)-ylidene]-1,4,5,6-tetrahydro-cyclopenta[b]pyrrole-3-carboxylic acid ethyl ester]
1.9 | Cc1[nH]c2c(c1C(=O)N1CCC[C@H]1CN1CCCC1)CC/C2=C1/C(=O)Nc2c(Cl)cccc21 [Example 21, 7-Chloro-3-[2-methyl-3-((S)-2-pyrrolidin-1-ylmethyl-pyrrolidine-1-carbonyl)-4,5-dihydro-1H-cyclopenta[b]pyrrol-(6Z)-ylidene]-1,3-dihydro-indol-2-one]
> 20 | CNS(=O)(=O)c1ccc2c(c1)C(=C1CCCC1)C(=O)N2 [Example 15, 3-Cyclopentylidene-2-oxo-2,3-dihydro-1H-indole-5-sulfonic acid methylamide]
0.53 | CCOC(=O)c1c(C)[nH]c2c1CC/C2=C1/C(=O)Nc2ccc(S(=O)(=O)CC)cc21 [Example 9, 6-[5-Ethanesulfonyl-2-oxo-1,2-dihydro-indol-(3Z)-ylidene]-2-methyl-1,4,5,6-tetrahydro-cyclopenta[b]pyrrole-3-carboxylic acid ethyl ester]
> 20 | CCOC(=O)c1c(C)[nH]c2c1CC/C2=C1/C(=O)Nc2ccc(S(=O)(=O)N(C)C)cc21 [Example 7, 6-[5-Dimethylsulfamoyl-2-oxo-1,2-dihydro-indol-(3Z)-ylidene]-2-methyl-1,4,5,6-tetrahydro-cyclopenta[b]pyrrole-3-carboxylic acid ethyl ester]
14.5 | CCOC(=O)c1c(C)[nH]c2c1CC/C2=C1/C(=O)Nc2ccc(S(C)(=O)=O)cc21 [Example 6, 6-[5-Methanesulfonyl-2-oxo-1,2-dihydro-indol-(3Z)-ylidene]-2-methyl-1,4,5,6-tetrahydro-cyclopenta[b]pyrrole-3-carboxylic acid ethyl ester]
0.015 | CNS(=O)(=O)c1ccc2c(c1)/C(=C1\CCc3c1[nH]c(C)c3C(=O)N1CCCC1CN1CCCC1)C(=O)N2 (stereo in doubt) [Example 13, 3-[2-Methyl-3-((R)-2-pyrrolidin-1-ylmethyl-pyrrolidine-1-carbonyl)-4,5-dihydro-1H-cyclopenta[b]pyrrol-(6Z)-ylidene]-2-oxo-2,3-dihydro-1H-indole-5-sulfonic acid methylamide]
2.5 | CCOC(=O)c1c(C)[nH]c2c1CC/C2=C1/C(=O)Nc2ccc(S(=O)(=O)Cc3c(Cl)cccc3Cl)cc21 [Example 2, 6-[5-(2,6-Dichloro-phenylmethanesulfonyl)-2-oxo-1,2-dihydro-indol-(3Z)-ylidene]-2-methyl-1,4,5,6-tetrahydro-cyclopenta[b]pyrrole-3-carboxylic acid ethyl ester]
> 20 | CCOC(=O)c1c(C)[nH]c2c1CC/C2=C1/C(=O)Nc2ccc(S(=O)(=O)NC(C)C)cc21 [Example 8, 6-[5-Isopropylsulfamoyl-2-oxo-1,2-dihydro-indol-(3Z)-ylidene]-2-methyl-1,4,5,6-tetrahydro-cyclopenta[b] pyrrole-3-carboxylic acid ethyl ester]
0.21 | COc1ccc2c(c1)NC(=O)/C2=C1/CCc2c1[nH]c(C)c2C(=O)N1CCC[C@H]1CN1CCCC1 [Example 19, 6-Methoxy-3-[2-methyl-3-((S)-2-pyrrolidin-1-ylmethyl-pyrrolidine-1-carbonyl)-4,5-dihydro-1H-cyclopenta[b]pyrrol-(6Z)-ylidene]-1,3-dihydro-indol-2-one]
0.025 | CNS(=O)(=O)c1ccc2c(c1)/C(=C1\CCc3cc(C)[nH]c31)C(=O)N2 [Example 4, 3-[2-Methyl-4,5-dihydro-1H-cyclopenta[b]pyrrol-(6Z)-ylidene]-2-oxo-2,3-dihydro-1H-indole-5-sulfonic acid methylamide]
2.07 | Cc1[nH]c2c(c1C(=O)N1CCC[C@H]1CN1CCCC1)CC/C2=C1/C(=O)Nc2ncccc21 [Example 22, 3-[2-Methyl-3-((S)-2-pyrrolidin-1-ylmethyl-pyrrolidine-1-carbonyl)-4,5-dihydro-1H-cyclopenta[b]pyrrol-(6Z)-ylidene]-1,3-dihydro-pyrrolo[2,3-b]pyridin-2-one]
0.017 | CNS(=O)(=O)c1ccc2c(c1)/C(=C1\CCc3c1[nH]c(C)c3C(=O)NCCN(C)C)C(=O)N2 [Example 12, 2-Methyl-6-[5-methylsulfamoyl-2-oxo-1,2-dihydro-indol-(3Z)-ylidene]-1,4,5,6-tetrahydro-cyclopenta[b]pyrrole-3-carboxylic acid (2-dimethylamino-ethyl)-amide]
0.6 | CCOC(=O)c1c(C)[nH]c2c1CC/C2=C1/C(=O)Nc2ccc(S(=O)(=O)NC)cc21 [Example 3, 2-Methyl-6-[5-methylsulfamoyl-2-oxo-1,2-dihydro-indol-(3Z)-ylidene]-1,4,5,6-tetrahydro-cyclopenta[b]pyrrole-3-carboxylic acid ethyl ester]
